Laboratory results published in US10993935B2, “Compositions and methods for treatment of lung infections” (priority 2018, dated 2021).

Tests used:
Type in all cases: cell-based, Pseudomonas aeruginosa
[1] = test system: clinical mucoid isolate from a CF patient; experiment: Further test of screen hits on a clinical mucoid isolate; conditions: compared with the other screen hits of Table 2
[2] = test system: promoter PalgD of the alginate biosynthetic operon; experiment: PalgD-lacZ promoter reporter (β-galactosidase) activity; conditions: PAO581, CF001, CF010; MIC1, MIC10, MIC30, MIC50 on PIA, 37° C., 24 h
Procedure: FIGS. 2A-2C include graphs showing RFX versus TOB mediated inhibition of the promoter PalgD activity of the alginate biosynthetic operon in laboratory and clinical isolates of P. aeruginosa. The β-galactosidase activity of PalgD was measured using the pLP170-PalgD-lacZ reporter construct in PAO581 (FIG. 2A), CF001 (FIG. 2B), and CF010 (FIG. 2C) grown on PIA plates with increasing concentrations of RFX or TOB (MIC1, MIC10, MIC30, MIC50) at 37° C. for 24 h. Relative expression mean values are shown ±SE of triplicate determinations. Two-way ANOVA was used to determine statistical significance set at a P value of <0.01 (****, P<0.0001).
While RFX inhibits alginate production, additional experiments were conducted to determine whether the inhibition was specific to alginate or whether it was a global suppression of transcription. To test this, the promoter reporter constructs PalgD_lacZ in pLP170 were used to quantify the promoter activity of the alginate biosynthetic operon PalgD. A promoter-less empty vector pLP170-lacZ was used as a negative control. Using the β-galactosidase reporter activity, the activity of PalgD in PAO581 was quantified (FIG. 2A), and two mucoid isolates (CF001 and CF010) from CF patients.

P. aeruginosa biofilms = experiment: Viable cell assay in preformed biofilms (MTT); conditions: PAO1, CF001, CF010; 24 h biofilms treated at 3×MIC
Procedure: FIGS. 3A-3B include graphs showing biofilm and cell viability reduction from treatment with TOB and/or RFX, where (FIG. 3A) biofilms were grown for 24 h in a 96-well plate and then treated with TOB, RFX, or TOB and RFX at a concentration of 3×MIC, or where (FIG. 3B) biofilms were grown for 24 h in a 96-well plate and then treated with TOB, RFX, or TOB and RFX at concentration of 3×MIC. Two-way ANOVA analysis was used with statistical significance set as a P value of <0.01 (****, P<0.0001; **, P<0.001; *, P<0.01).
Viable Cell Assay. Viable cell counts were done to determine the reduction of viable cells in preformed biofilms treated with TOB and/or RFX. Briefly, following biofilm reduction protocol, biofilms were grown in a flat bottom 96-well microplate (Corning) using 200 μl LB of 1.0-1.5×10^5 inoculum of lab and clinical strains of non-mucoid and mucoid P. aeruginosa for 24 h at 37° C. After incubation, the media was removed, and plate was washed with PBS twice. New LB media containing 1-5×MIC90 of TOB and/or RFX was added to the plate in a checkerboard pattern. After 24 h growth at 37° C., the media was removed and replaced with methylthiazoltetrazolium (MTT; Sigma). After 1 h incubation, DMSO was added and plates were read via OD at 570 nm using SpectraMax i3x plate reader to determine viable cell differences between TOB and/or RFX. […]

| Structure (SMILES) | inhibition of growth and mucoidy [1] | PalgD promoter activity (β-galactosidase reporter) [2] | viable cells in a preformed biofilm (P. aeruginosa biofilms) |
| --- | --- | --- | --- |
| CO[C@H]1/C=C/O[C@@]2(C)Oc3c(C)c(O)c4c(O)c(c5c(nc6cc(C)ccn65)c4c3C2=O)NC(=O)/C(C)=C\C=C\[C@H](C)[C@H](O)[C@@H](C)[C@@H](O)[C@@H](C)[C@H](OC(C)=O)[C@@H]1C [RFX, rifaximin] | most effective drug to inhibit the growth and mucoidy | more pronounced effect on promoter activity than TOB |  |
| NC[C@H]1O[C@H](O[C@H]2[C@H](O)[C@@H](O[C@H]3O[C@H](CO)[C@@H](O)[C@H](N)[C@H]3O)[C@H](N)C[C@@H]2N)[C@H](N)C[C@@H]1O [TOB, tobramycin] |  |  | significantly reduced the number of viable cells |
